Measured values from ChEMBL document CHEMBL3046371, “Benzimidazole derivatives: synthesis, leishmanicidal effectiveness, and molecular docking studies” (Med Chem Res, 2013).
In brackets after ≈: the same amount, converted by molar mass.

What follows are compounds tested on Leishmania major (assay: Antileishmanial activity against promastigote form of Leishmania major after 72 hr by Neubauer counting analysis).
Type: functional, organism-based
Work on `O=[N+]([O-])c1ccc2[nH]c(-c3ccccc3)nc2c1` yielded an IC50 of 0.8 µg/mL (≈ 3.34 µM).
`O=[N+]([O-])c1ccc2[nH]c(-c3ccc(Cl)cc3)nc2c1` was tested, and the IC50 was 0.64 µg/mL (≈ 2.34 µM).
Compound `Cc1ccc(-c2nc3cc([N+](=O)[O-])ccc3[nH]2)cc1` has an IC50 of 0.88 µg/mL (≈ 3.47 µM).
`O=[N+]([O-])c1ccc2[nH]c(-c3ccccc3[N+](=O)[O-])nc2c1` was tested, and the IC50 was 0.73 µg/mL (≈ 2.57 µM).
With `O=[N+]([O-])c1ccc(-c2nc3cc([N+](=O)[O-])ccc3[nH]2)cc1` the IC50 was 0.75 µg/mL (≈ 2.64 µM).
Compound `c1ccc(-c2nc3ccccc3[nH]2)cc1` has an IC50 of 0.68 µg/mL (≈ 3.5 µM).
In the case of `COc1ccc(-c2nc3cc([N+](=O)[O-])ccc3[nH]2)cc1`, the IC50 is reported as 0.85 µg/mL (≈ 3.16 µM).
With `O=[N+]([O-])c1cccc(-c2nc3cc([N+](=O)[O-])ccc3[nH]2)c1` the IC50 was 0.79 µg/mL (≈ 2.78 µM).
In the case of `O=[N+]([O-])c1ccc2[nH]c(-c3cccnc3)nc2c1`, the IC50 is reported as 0.79 µg/mL (≈ 3.29 µM).
For `Fc1ccc(-c2nc3ccccc3[nH]2)cc1`, the IC50 was 0.79 µg/mL (≈ 3.72 µM).
With `O=[N+]([O-])c1ccc2nc(-c3ccccc3Cl)[nH]c2c1` the IC50 was 0.91 µg/mL (≈ 3.33 µM).
`c1csc(-c2nc3ccccc3[nH]2)c1` showed an IC50 of 0.62 µg/mL (≈ 3.1 µM).
`O=[N+]([O-])c1ccccc1-c1nc2ccccc2[nH]1` gave an IC50 of 0.69 µg/mL (≈ 2.88 µM).
With `Cc1ccc(-c2nc3ccccc3[nH]2)cc1` the IC50 was 0.79 µg/mL (≈ 3.79 µM).
In the case of `Cc1ccc(-c2nc3cc([N+](=O)[O-])ccc3[nH]2)o1`, the IC50 is reported as 0.64 µg/mL (≈ 2.63 µM).
`O=[N+]([O-])c1ccc2[nH]c(-c3ccc(F)cc3)nc2c1` showed an IC50 of 0.77 µg/mL (≈ 2.99 µM).
`CCCCOc1ccc(-c2nc3cc([N+](=O)[O-])ccc3[nH]2)cc1` was tested, and the IC50 was 0.76 µg/mL (≈ 2.44 µM).
In the case of `CC(C)c1ccc(-c2nc3cc([N+](=O)[O-])ccc3[nH]2)cc1`, the IC50 is reported as 0.8 µg/mL (≈ 2.84 µM).
`O=[N+]([O-])c1ccc2[nH]c(-c3c[nH]c4ccccc34)nc2c1` gave an IC50 of 0.62 µg/mL (≈ 2.23 µM).
With `O=[N+]([O-])c1ccc2[nH]c(-c3ccc[nH]3)nc2c1` the IC50 was 0.91 µg/mL (≈ 3.99 µM).
`O=[N+]([O-])c1ccc2[nH]c(-c3cccs3)nc2c1` gave an IC50 of 0.82 µg/mL (≈ 3.34 µM).
`COc1cccc(-c2nc3ccccc3[nH]2)c1` gave an IC50 of 0.77 µg/mL (≈ 3.43 µM).
With `CC(C)c1ccc(-c2nc3ccccc3[nH]2)cc1` the IC50 was 0.64 µg/mL (≈ 2.71 µM).
`c1ccc2[nH]c(-c3c[nH]c4ccccc34)nc2c1` was tested, and the IC50 was 0.87 µg/mL (≈ 3.73 µM).
`c1c[nH]c(-c2nc3ccccc3[nH]2)c1` showed an IC50 of 0.63 µg/mL (≈ 3.44 µM).
`Cc1ccc(-c2nc3ccccc3[nH]2)o1` gave an IC50 of 0.84 µg/mL (≈ 4.24 µM).
`COc1cccc(-c2nc3cc([N+](=O)[O-])ccc3[nH]2)c1` showed an IC50 of 0.82 µg/mL (≈ 3.05 µM).
Work on `Oc1ccc(-c2nc3ccccc3[nH]2)cc1` yielded an IC50 of 0.92 µg/mL (≈ 4.38 µM).
For `COc1ccc(-c2nc3ccccc3[nH]2)cc1`, the IC50 was 0.81 µg/mL (≈ 3.61 µM).
`c1ccc2[nH]c(-c3ccncc3)nc2c1` gave an IC50 of 0.88 µg/mL (≈ 4.51 µM).
`O=[N+]([O-])c1ccc2[nH]c(-c3ccccn3)nc2c1` showed an IC50 of 0.73 µg/mL (≈ 3.04 µM).
`Clc1ccccc1-c1nc2ccccc2[nH]1` was tested, and the IC50 was 0.78 µg/mL (≈ 3.41 µM).
`Clc1ccc(-c2nc3ccccc3[nH]2)cc1` gave an IC50 of 0.72 µg/mL (≈ 3.15 µM).
`O=[N+]([O-])c1ccc(-c2nc3ccccc3[nH]2)cc1` gave an IC50 of 0.71 µg/mL (≈ 2.97 µM).
`O=[N+]([O-])c1cccc(-c2nc3ccccc3[nH]2)c1` was tested, and the IC50 was 0.82 µg/mL (≈ 3.43 µM).
`CCCCOc1ccc(-c2nc3ccccc3[nH]2)cc1` showed an IC50 of 0.65 µg/mL (≈ 2.44 µM).
For `c1cncc(-c2nc3ccccc3[nH]2)c1`, the IC50 was 0.64 µg/mL (≈ 3.28 µM).
